For four compounds, Activity and IC50 results are on record in ChEMBL document CHEMBL4261615, “Design, synthesis, biological evaluation and cellular imaging of imidazo[4,5-b]pyridine derivatives as potent and selective TAM inhibitors” (Bioorg Med Chem, 2018).

In experiment [1] the target is Fibroblast growth factor receptor 1 (Homo sapiens) (UniProt P11362). Briefly: Binding affinity to wild-type human partial length FGFR1 (P357 to V669 residues) expressed in bacterial expression system assessed as fraction of unbound kinase to substrate at 1 uM after 1 hr by KinomeScan assay.
The target of experiment [2] is T1, Tyrosine-protein kinase receptor TYRO3 (Homo sapiens, UniProt Q06418).
T1 sequence (Q06418 whole entry): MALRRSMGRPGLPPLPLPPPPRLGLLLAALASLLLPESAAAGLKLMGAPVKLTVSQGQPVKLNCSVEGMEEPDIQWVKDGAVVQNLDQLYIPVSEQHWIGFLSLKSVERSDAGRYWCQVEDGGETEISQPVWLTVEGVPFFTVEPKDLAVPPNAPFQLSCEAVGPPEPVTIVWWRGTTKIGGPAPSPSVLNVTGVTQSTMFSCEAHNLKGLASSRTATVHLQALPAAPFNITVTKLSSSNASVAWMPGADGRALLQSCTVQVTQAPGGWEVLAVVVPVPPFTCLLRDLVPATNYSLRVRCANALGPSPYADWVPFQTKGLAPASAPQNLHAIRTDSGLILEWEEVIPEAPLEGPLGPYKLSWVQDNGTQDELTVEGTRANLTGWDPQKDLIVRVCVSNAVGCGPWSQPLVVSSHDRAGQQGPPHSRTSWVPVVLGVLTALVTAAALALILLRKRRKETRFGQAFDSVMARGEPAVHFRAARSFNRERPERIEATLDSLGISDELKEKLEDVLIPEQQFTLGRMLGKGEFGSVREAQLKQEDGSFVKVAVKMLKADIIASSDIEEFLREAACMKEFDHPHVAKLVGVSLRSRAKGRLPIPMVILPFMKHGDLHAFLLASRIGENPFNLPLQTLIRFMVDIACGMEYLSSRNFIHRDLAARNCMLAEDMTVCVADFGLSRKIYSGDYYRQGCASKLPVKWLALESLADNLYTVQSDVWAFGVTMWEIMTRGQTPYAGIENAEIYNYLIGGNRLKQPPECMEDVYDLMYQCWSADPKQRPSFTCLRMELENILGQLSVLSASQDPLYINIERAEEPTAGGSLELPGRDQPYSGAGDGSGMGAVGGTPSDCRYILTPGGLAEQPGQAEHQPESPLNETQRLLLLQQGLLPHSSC
Briefly: Inhibition of recombinant GST-tagged human Tyro3 (451 to 890 residues) cytoplasmic domain expressed in Baculovirus expression system using poly (Glu-Ala-Tyr) peptide as substrate after 5 mins in presence of ADP by fluorescence analysis.

Experiment [3] addresses Fibroblast growth factor receptor 1 (Homo sapiens) (UniProt P11362). Nature of the experiment: Binding affinity to wild-type human partial length FGFR1 (P357 to V669 residues) expressed in bacterial expression system assessed as fraction of unbound kinase to substrate at 0.1 uM after 1 hr by KinomeScan assay.
For experiment [4], the target named is Cyclin-dependent kinase 2 (Homo sapiens) (UniProt P24941). Briefly: Binding affinity to wild-type human full length CDK2 (M1 to L298 residues) expressed in bacterial expression system assessed as fraction of unbound kinase to substrate at 0.1 uM after 1 hr by KinomeScan assay.
In experiment [5] the target is Tyrosine-protein kinase receptor UFO (Homo sapiens) (UniProt P30530). Nature of the experiment: Binding affinity to human AXL (R497 to Y821 residues) expressed in bacterial expression system assessed as fraction of unbound kinase to substrate at 0.1 uM after 1 hr by KinomeScan assay.
The target of experiment [6] is Serine/threonine-protein kinase B-raf (Homo sapiens) (UniProt P15056). Briefly: Binding affinity to wild-type human partial length BRAF (S429 to E741 residues) expressed in mammalian expression system assessed as fraction of unbound kinase to substrate at 0.1 uM after 1 hr by KinomeScan assay.
Experiment [7] concerns the target Tyrosine-protein kinase ABL1 (Homo sapiens) (UniProt P00519). Nature of the experiment: Binding affinity to human wild type ABL1 (229 to 512 residues) expressed in mammalian expression system assessed as fraction of unbound kinase to substrate at 1 uM after 1 hr by KinomeScan assay.
Experiment [8] concerns the target T2, Tyrosine-protein kinase receptor UFO (Homo sapiens, UniProt P30530).
T2 sequence (P30530 whole entry): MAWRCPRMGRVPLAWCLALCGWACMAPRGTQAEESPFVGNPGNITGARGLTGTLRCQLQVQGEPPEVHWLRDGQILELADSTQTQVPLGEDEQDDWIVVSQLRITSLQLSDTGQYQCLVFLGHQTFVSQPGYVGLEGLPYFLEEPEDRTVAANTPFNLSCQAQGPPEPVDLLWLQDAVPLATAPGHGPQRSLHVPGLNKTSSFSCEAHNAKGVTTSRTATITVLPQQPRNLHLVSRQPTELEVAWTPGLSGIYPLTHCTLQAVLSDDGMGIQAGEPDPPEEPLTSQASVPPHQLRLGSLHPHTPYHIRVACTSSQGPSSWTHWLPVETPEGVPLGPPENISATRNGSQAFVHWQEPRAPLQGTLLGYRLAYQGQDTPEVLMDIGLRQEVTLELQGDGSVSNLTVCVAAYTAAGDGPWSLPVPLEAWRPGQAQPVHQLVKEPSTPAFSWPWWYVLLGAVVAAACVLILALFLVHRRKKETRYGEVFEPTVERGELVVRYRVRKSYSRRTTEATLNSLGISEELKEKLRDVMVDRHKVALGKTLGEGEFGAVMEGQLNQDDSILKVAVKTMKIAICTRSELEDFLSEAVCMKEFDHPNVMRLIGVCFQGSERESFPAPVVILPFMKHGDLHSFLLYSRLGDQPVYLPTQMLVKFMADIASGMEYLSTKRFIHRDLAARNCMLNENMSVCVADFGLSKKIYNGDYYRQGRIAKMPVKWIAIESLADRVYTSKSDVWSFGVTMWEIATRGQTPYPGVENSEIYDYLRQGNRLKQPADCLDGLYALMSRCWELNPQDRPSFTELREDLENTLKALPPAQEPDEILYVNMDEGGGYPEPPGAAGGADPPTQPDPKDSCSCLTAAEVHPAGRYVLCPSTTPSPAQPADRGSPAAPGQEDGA
Briefly: Inhibition of recombinant His-tagged human Axl (473 to end residues) cytoplasmic domain expressed in insect system using poly (Glu-Ala-Tyr) peptide as substrate after 5 mins in presence of ADP by fluorescence analysis.

For experiment [9], the target named is Fibroblast growth factor receptor 1 (Homo sapiens) (UniProt P11362). Briefly: Binding affinity to wild-type human partial length FGFR1 (P357 to V669 residues) expressed in bacterial expression system assessed as fraction of unbound kinase to substrate at 10 uM after 1 hr by KinomeScan assay.
For experiment [10], the target named is Glycogen synthase kinase-3 beta (Homo sapiens) (UniProt P49841). Briefly: Binding affinity to full length wild type human GSK3beta (M1 to T433 residues) expressed in mammalian expression system assessed as fraction of unbound kinase to substrate at 0.1 uM after 1 hr by KinomeScan assay.

Molecules are shown by their SMILES.

Chain of Serine/threonine-protein kinase B-raf (Homo sapiens) (P15056 whole entry, the tested form may be a part): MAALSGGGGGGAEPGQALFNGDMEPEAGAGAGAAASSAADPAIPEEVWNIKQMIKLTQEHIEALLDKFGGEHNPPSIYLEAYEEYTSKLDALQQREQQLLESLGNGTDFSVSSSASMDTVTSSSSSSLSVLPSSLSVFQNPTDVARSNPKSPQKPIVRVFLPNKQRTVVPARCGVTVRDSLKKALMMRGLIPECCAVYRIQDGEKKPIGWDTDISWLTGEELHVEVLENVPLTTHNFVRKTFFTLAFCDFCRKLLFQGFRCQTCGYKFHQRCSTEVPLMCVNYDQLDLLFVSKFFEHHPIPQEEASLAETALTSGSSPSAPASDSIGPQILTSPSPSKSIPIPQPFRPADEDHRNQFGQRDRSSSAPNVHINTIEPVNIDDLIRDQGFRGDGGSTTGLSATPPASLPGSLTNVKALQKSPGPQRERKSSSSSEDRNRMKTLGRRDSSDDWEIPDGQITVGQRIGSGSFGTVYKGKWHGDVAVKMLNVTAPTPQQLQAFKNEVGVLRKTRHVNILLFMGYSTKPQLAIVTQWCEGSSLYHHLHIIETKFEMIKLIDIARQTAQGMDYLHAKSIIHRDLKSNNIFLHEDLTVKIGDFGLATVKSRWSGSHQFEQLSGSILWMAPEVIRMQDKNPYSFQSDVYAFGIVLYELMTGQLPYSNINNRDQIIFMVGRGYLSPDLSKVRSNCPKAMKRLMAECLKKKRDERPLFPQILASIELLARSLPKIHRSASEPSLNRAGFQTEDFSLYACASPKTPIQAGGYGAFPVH
Chain of Fibroblast growth factor receptor 1 (Homo sapiens) (P11362 22-822 limits assumed): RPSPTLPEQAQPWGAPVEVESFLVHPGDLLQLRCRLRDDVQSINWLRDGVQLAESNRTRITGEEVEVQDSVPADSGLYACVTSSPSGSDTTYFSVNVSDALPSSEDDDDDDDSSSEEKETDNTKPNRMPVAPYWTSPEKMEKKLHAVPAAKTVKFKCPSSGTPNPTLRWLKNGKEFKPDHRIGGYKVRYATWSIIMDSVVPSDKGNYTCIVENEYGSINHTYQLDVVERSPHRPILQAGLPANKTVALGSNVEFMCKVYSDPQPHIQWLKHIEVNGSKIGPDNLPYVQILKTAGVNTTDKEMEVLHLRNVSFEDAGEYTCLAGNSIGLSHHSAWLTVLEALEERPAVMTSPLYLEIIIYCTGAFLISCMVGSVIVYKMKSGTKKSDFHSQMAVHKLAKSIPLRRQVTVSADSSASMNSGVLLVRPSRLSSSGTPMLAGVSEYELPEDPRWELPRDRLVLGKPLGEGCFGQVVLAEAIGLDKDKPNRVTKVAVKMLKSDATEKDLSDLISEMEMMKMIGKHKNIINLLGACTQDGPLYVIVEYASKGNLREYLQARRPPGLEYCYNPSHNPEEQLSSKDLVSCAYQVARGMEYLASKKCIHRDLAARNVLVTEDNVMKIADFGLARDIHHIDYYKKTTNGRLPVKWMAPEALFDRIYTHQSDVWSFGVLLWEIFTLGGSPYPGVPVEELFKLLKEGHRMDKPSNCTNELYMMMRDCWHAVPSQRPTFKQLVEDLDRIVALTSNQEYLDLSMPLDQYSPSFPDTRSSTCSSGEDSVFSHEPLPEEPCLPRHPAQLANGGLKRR
Chain of Tyrosine-protein kinase ABL1 (Homo sapiens) (P00519 whole entry, the tested form may be a part): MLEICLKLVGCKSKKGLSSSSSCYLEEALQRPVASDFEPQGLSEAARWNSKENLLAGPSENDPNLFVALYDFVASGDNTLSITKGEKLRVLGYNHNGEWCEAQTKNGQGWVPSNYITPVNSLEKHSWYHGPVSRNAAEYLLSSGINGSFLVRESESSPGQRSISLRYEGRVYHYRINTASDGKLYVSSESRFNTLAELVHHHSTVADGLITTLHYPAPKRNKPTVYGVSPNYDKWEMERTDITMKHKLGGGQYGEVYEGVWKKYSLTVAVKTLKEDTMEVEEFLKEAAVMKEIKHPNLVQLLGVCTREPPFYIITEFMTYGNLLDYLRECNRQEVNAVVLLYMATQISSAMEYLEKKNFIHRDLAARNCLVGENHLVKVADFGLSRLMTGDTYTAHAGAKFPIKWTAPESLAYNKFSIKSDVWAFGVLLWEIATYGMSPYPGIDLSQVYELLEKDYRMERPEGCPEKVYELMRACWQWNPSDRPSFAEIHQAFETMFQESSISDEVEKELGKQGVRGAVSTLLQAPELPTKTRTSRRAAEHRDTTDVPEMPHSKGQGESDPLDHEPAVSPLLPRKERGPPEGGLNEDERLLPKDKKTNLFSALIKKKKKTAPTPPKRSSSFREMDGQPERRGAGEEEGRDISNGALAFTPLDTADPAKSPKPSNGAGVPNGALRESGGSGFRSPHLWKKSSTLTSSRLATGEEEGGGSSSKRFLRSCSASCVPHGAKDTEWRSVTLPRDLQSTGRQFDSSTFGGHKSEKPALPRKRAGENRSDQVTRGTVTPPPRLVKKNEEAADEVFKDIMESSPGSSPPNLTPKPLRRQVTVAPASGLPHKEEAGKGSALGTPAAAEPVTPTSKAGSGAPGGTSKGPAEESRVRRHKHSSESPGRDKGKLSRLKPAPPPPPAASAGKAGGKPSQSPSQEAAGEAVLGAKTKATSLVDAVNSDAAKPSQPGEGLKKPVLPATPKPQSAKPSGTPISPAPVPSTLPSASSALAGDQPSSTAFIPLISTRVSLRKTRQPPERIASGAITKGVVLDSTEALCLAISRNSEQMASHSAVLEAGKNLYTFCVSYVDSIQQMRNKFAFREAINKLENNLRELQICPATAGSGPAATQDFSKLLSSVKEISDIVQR
Chain of Glycogen synthase kinase-3 beta (Homo sapiens) (P49841 whole entry, looked up, the tested form may be a part): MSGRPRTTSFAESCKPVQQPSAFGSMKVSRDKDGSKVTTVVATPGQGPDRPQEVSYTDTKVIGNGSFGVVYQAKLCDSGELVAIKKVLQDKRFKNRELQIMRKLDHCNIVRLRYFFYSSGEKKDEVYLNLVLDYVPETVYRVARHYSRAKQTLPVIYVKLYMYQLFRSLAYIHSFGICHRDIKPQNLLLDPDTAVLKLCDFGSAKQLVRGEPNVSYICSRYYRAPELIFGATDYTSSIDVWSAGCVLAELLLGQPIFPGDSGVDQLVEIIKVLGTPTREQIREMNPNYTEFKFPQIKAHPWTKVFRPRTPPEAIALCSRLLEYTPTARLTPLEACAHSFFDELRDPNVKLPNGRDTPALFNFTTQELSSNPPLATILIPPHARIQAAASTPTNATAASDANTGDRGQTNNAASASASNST

For the compound `Cc1cnc2[nH]cnc2c1Oc1ccc(NC(=O)c2cccn(-c3ccc(F)cc3)c2=O)cc1F`, the Activity in [1] came to 2%; in [3], 8%; in experiment [4], 0%; in experiment [5], 22%; in experiment [6], 0%; in [7], 1%. The Activity in experiment [9] is 15%; in experiment [10], 2%. Moreover, the IC50 in experiment [2] and in [8] was greater than 100000 nM each time.
As to `O=C(Nc1ccc(Oc2ccnc3[nH]cnc23)c(F)c1)c1cccn(-c2ccc(F)cc2)c1=O`, the Activity in [1] was found to be 2%; in [3], 1%; in [4], 0%; in experiment [5] it was 78%; in experiment [6], 9%; in experiment [7] it was 13%. Further, the Activity was determined as 6% in experiment [9] and 0% in experiment [10]. For the same compound, the IC50 was 690 nM in experiment [2] and 0.77 nM in experiment [8].
In the case of `CC(C)c1nc2c(Oc3ccc(NC(=O)c4cccn(-c5ccc(F)cc5)c4=O)cc3F)ccnc2[nH]1`, the Activity in [1] stood at 1%; in experiment [3] it was 7%; in experiment [4], 41%; in [5], 61%; in experiment [6] it was 0%; in experiment [7], 3%. For the same compound, the Activity is 1% in experiment [9] and 0% in experiment [10]. The IC50 in [2] is 4700 nM; in [8], 70 nM.
Consider `O=C(Nc1ccc(Oc2c(Br)cnc3[nH]cnc23)c(F)c1)c1cccn(-c2ccc(F)cc2)c1=O`, for which the Activity in [1] came out at 1%; in [3], 7%; in experiment [4], 0%; in experiment [5], 4%; in experiment [6], 0%; in experiment [7], 0%. In addition, the Activity stood at 11% in experiment [9] and 0% in experiment [10]. Further, the IC50 in [2] turned out to be 270 nM; in experiment [8], 2000 nM.
